# Several values for one entry are separate records, joined by “and”; a condition that tells them apart may be missing. Equal entries are not always repeated.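 Values below derive from 48-hour exposures of cells grown in 96-well plates, with endpoints linearly interpolated between the two concentrations bracketing the appropriate inhibition level. Here, GI50 denotes the concentration required for 50% inhibition of growth. TGI: concentration producing complete growth inhibition.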
# Legend:
# Assay in all cases: NCI tumour cell line growth inhibition, 48 h
# [1] = system: SN12K1 renal
# [2] = system: P388/ADR leukemia
# [3] = system: NCI/ADR-RES ovarian
# [4] = system: LXFL 529 NSCLC
# [5] = system: SNB-78 CNS
# [6] = system: DLD-1 colon
# [7] = system: P388 leukemia
# [8] = system: RXF-631 renal
Compound,TGI [1] [µM],TGI [2] [µM],TGI [3] [µM],TGI [4],TGI [5] [µM],TGI [6],TGI [7] [µM],TGI [8],GI50 [4] [µM],GI50 [8],GI50 [6] [µM]
O=CN/C=C/c1cc(O)ccc1O,32.4,4.14,42.1,23.9 µM,44.3,34.4 µM,5.2,,,,
COC1(OC)CCC2C1C1CCC(OC)(OC)C21 (stereo not given),,,,> 50 µM,> 50,> 50 µM,,> 50 µM,,,
O=C(/C=C/c1ccccc1)NC1C=Nc2ccc(Cl)cc2NC1=O (stereo not given),,,,> 100 µM,> 100,> 100 µM,,> 100 µM,,,
COC(=O)[C@@H]1[C@H](O)[C@H](C)[C@H](O)[C@@](C)(O)/C=C\C=C(C)C(=O)Nc2c(C)c(OC(C)=O)c3c(c2O)C(=O)C(C)=C2OCOC(=C23)C(C)=C[C@@](C)(O)[C@H](O)[C@@H](C)[C@H]1OC(C)=O,,,,> 100 µM and 66.9 µM,> 100,> 100 µM and 66.9 µM,,> 100 µM and 66.9 µM,35.6,> 100 µM and 39.8 µM and 36.4 µM,40.7
C[C@]12CC[C@H](O)CC1=CC[C@@H]1C2CC[C@]2(C)C(=O)N(N)C(=O)CC12 (stereo not given in full),,,,> 100 µM,> 100,> 100 µM,,> 100 µM,,,
CCOC(=O)C1=C(C)NC(=S)NC1c1ccccc1 (stereo not given),,,,> 100 µM,> 100,> 100 µM,,> 100 µM,,,

# — PubChem BioAssay (NCI)
